Source: the NIST ThermoML archive (doi:10.1021/je700260f)
Numbers after ± are expanded uncertainties.

Conditions: 293.15 K, Liquid, Vibrating tube method

FC(C(F)(F)F)C(F)(F)F [1,1,1,2,3,3,3-heptafluoropropane]
Conditions	mass density [kg/m3]
11786 kPa	1474.1 ± 1.6
11826 kPa	1474.2 ± 1.6
11860 kPa	1474.3 ± 1.6
11894 kPa	1474.6 ± 1.6
11934 kPa	1474.7 ± 1.6
11967 kPa	1474.9 ± 1.6
12017 kPa	1475.1 ± 1.6
12045 kPa	1475.2 ± 1.6
12079 kPa	1475.4 ± 1.6
12119 kPa	1475.5 ± 1.6
12156 kPa	1475.8 ± 1.6
12195 kPa	1475.9 ± 1.6
12235 kPa	1476.1 ± 1.6
12280 kPa	1476.3 ± 1.6
12314 kPa	1476.4 ± 1.6
12354 kPa	1476.7 ± 1.6
12388 kPa	1476.9 ± 1.6
12422 kPa	1476.9 ± 1.6
12468 kPa	1477.1 ± 1.6
12502 kPa	1477.4 ± 1.6
12549 kPa	1477.5 ± 1.6
12591 kPa	1477.7 ± 1.6
12626 kPa	1477.9 ± 1.6
12670 kPa	1478 ± 1.6
12710 kPa	1478.2 ± 1.6
12745 kPa	1478.3 ± 1.6
12888 kPa	1479 ± 1.6
12980 kPa	1479.5 ± 1.6
13020 kPa	1479.6 ± 1.6
13072 kPa	1479.9 ± 1.6
13099 kPa	1480 ± 1.6
13131 kPa	1480.1 ± 1.6
13163 kPa	1480.3 ± 1.6
13195 kPa	1480.5 ± 1.6
13233 kPa	1480.6 ± 1.6
13264 kPa	1480.7 ± 1.6
13307 kPa	1480.8 ± 1.6
13344 kPa	1481.1 ± 1.6
13371 kPa	1481.1 ± 1.6
13408 kPa	1481.4 ± 1.6
13440 kPa	1481.4 ± 1.6
13489 kPa	1481.8 ± 1.6
13521 kPa	1481.8 ± 1.6
13564 kPa	1482 ± 1.6
13606 kPa	1482.2 ± 1.6
13649 kPa	1482.4 ± 1.6
13687 kPa	1482.5 ± 1.6
13719 kPa	1482.6 ± 1.6
13758 kPa	1482.8 ± 1.6
13797 kPa	1482.9 ± 1.6
13824 kPa	1483.2 ± 1.6
13857 kPa	1483.3 ± 1.6
13891 kPa	1483.4 ± 1.6
13930 kPa	1483.6 ± 1.6
13963 kPa	1483.7 ± 1.6
14065 kPa	1484.2 ± 1.6
14101 kPa	1484.3 ± 1.6
14128 kPa	1484.5 ± 1.6
14165 kPa	1484.6 ± 1.6
14192 kPa	1484.8 ± 1.6
14223 kPa	1484.9 ± 1.6
14249 kPa	1484.9 ± 1.6
14285 kPa	1485 ± 1.6
14316 kPa	1485.3 ± 1.6
14339 kPa	1485.3 ± 1.6
14370 kPa	1485.5 ± 1.6
14403 kPa	1485.6 ± 1.6
14431 kPa	1485.7 ± 1.6
14462 kPa	1485.9 ± 1.6
14489 kPa	1486 ± 1.6
14520 kPa	1486.2 ± 1.6
14557 kPa	1486.3 ± 1.6
14598 kPa	1486.4 ± 1.6
14635 kPa	1486.6 ± 1.6
14673 kPa	1486.7 ± 1.6
14705 kPa	1487 ± 1.6
14732 kPa	1486.9 ± 1.6
14759 kPa	1487.1 ± 1.6
14795 kPa	1487.3 ± 1.6
14831 kPa	1487.5 ± 1.6
14872 kPa	1487.5 ± 1.6
14913 kPa	1487.8 ± 1.6
14940 kPa	1487.9 ± 1.6
14973 kPa	1488 ± 1.6
15005 kPa	1488.2 ± 1.6
15038 kPa	1488.2 ± 1.6
15080 kPa	1488.6 ± 1.6
15103 kPa	1488.6 ± 1.6
15144 kPa	1488.7 ± 1.6
15181 kPa	1488.9 ± 1.6
15209 kPa	1488.8 ± 1.6
15237 kPa	1489.1 ± 1.6
15270 kPa	1489.2 ± 1.6
15298 kPa	1489.5 ± 1.6
15335 kPa	1489.4 ± 1.6
15363 kPa	1489.7 ± 1.6
15398 kPa	1489.7 ± 1.6
15425 kPa	1489.9 ± 1.6
15467 kPa	1490.1 ± 1.6
15504 kPa	1490.2 ± 1.6
15527 kPa	1490.4 ± 1.6
15569 kPa	1490.6 ± 1.6
15611 kPa	1490.8 ± 1.6
15639 kPa	1490.9 ± 1.6
15672 kPa	1490.8 ± 1.6
15719 kPa	1491.1 ± 1.6
15747 kPa	1491.3 ± 1.6
15777 kPa	1491.4 ± 1.6
15814 kPa	1491.4 ± 1.6
15837 kPa	1491.6 ± 1.6
15880 kPa	1491.9 ± 1.6
15913 kPa	1492 ± 1.6
15942 kPa	1492.2 ± 1.6
15975 kPa	1492.2 ± 1.6
16018 kPa	1492.4 ± 1.6
16046 kPa	1492.3 ± 1.6
16079 kPa	1492.7 ± 1.6
16118 kPa	1492.8 ± 1.6
16153 kPa	1493 ± 1.6
16181 kPa	1493.1 ± 1.6
16215 kPa	1493.2 ± 1.6
16244 kPa	1493.2 ± 1.6
16277 kPa	1493.6 ± 1.6
16315 kPa	1493.7 ± 1.6
16344 kPa	1493.7 ± 1.6
16377 kPa	1493.9 ± 1.6
16411 kPa	1493.9 ± 1.6
16446 kPa	1494.1 ± 1.6
16474 kPa	1494.1 ± 1.6
16503 kPa	1494.3 ± 1.6
16532 kPa	1494.4 ± 1.6
16734 kPa	1495.3 ± 1.6
16772 kPa	1495.4 ± 1.6
16831 kPa	1495.6 ± 1.6
16865 kPa	1495.9 ± 1.6
16904 kPa	1496 ± 1.6
16934 kPa	1496.2 ± 1.6
16964 kPa	1496.2 ± 1.6
16998 kPa	1496.3 ± 1.6
17038 kPa	1496.5 ± 1.6
17068 kPa	1496.6 ± 1.6
17113 kPa	1496.7 ± 1.6
17158 kPa	1497 ± 1.6
17183 kPa	1497.1 ± 1.6
17228 kPa	1497.2 ± 1.6
17263 kPa	1497.4 ± 1.6
17293 kPa	1497.5 ± 1.6
17334 kPa	1497.7 ± 1.6
17375 kPa	1497.8 ± 1.6
17405 kPa	1498 ± 1.6
17450 kPa	1498.2 ± 1.6
17485 kPa	1498.2 ± 1.6
17520 kPa	1498.5 ± 1.6
17555 kPa	1498.5 ± 1.6
17654 kPa	1498.9 ± 1.6
17694 kPa	1499.1 ± 1.6
17726 kPa	1499.2 ± 1.6
17756 kPa	1499.4 ± 1.6
17801 kPa	1499.4 ± 1.6
17831 kPa	1499.5 ± 1.6
17856 kPa	1499.6 ± 1.6
17902 kPa	1499.9 ± 1.6
17933 kPa	1499.9 ± 1.6
17969 kPa	1500.2 ± 1.6
18004 kPa	1500.4 ± 1.6
18044 kPa	1500.5 ± 1.6
18075 kPa	1500.4 ± 1.6
18124 kPa	1500.8 ± 1.6
18164 kPa	1500.9 ± 1.6
18194 kPa	1501.1 ± 1.6
18235 kPa	1501.3 ± 1.6
18276 kPa	1501.4 ± 1.6
18313 kPa	1501.5 ± 1.6
18349 kPa	1501.6 ± 1.6
18391 kPa	1501.8 ± 1.6
18428 kPa	1502 ± 1.6
18459 kPa	1502 ± 1.6
18502 kPa	1502.3 ± 1.6
18544 kPa	1502.5 ± 1.6
18574 kPa	1502.5 ± 1.6
18611 kPa	1502.7 ± 1.6
18650 kPa	1502.7 ± 1.6
18678 kPa	1502.9 ± 1.6
18720 kPa	1503.1 ± 1.6
18753 kPa	1503.1 ± 1.6
18785 kPa	1503.3 ± 1.6
18822 kPa	1503.5 ± 1.6
18859 kPa	1503.7 ± 1.6
18888 kPa	1503.6 ± 1.6
18925 kPa	1503.8 ± 1.6
18953 kPa	1503.9 ± 1.6
18981 kPa	1504.1 ± 1.6
19018 kPa	1504.2 ± 1.6
19055 kPa	1504.4 ± 1.6
19084 kPa	1504.5 ± 1.6
19116 kPa	1504.5 ± 1.6
19145 kPa	1504.6 ± 1.6
19183 kPa	1504.8 ± 1.6
19210 kPa	1505 ± 1.6
19243 kPa	1505 ± 1.6
19282 kPa	1505.2 ± 1.6
19320 kPa	1505.4 ± 1.6
19349 kPa	1505.5 ± 1.6
19392 kPa	1505.6 ± 1.6
19430 kPa	1505.9 ± 1.6
19460 kPa	1505.8 ± 1.6
